Key:
prostacyclin synthetase = assay: PGI2 production in human glomeruli (renal preparation model); assay type: cell-based; details: arachidonic acid 5 ug/ml
Protocol: (§1) Human glomeruli synthesize both thromboxanes, via thromboxane synthetase, and prostaglandins, via prostacyclin synthetase. The experiment consists in stimulating glomerular cells with arachidonic acid (5 ug/ml) and in assaying radioimmunologically the amount of thromboxane B2 (TXB2) and prostacyclin (PGI2) produced in the presence of increasing concentrations of test products (10^-6 M to 5×10^-5 M).
(§2) As for the previous model, the results are expressed as IC50 in comparison with a control suspension.

thromboxane synthetase [1] = assay: TXB2 production in human platelet suspension (thromboxane synthetase); assay type: cell-based; details: human platelets, arachidonic acid 5 μg/ml, 37° C., read-out: IC50, inhibition of the production of TXB2
Protocol: The platelets are incubated with arachidonic acid (5 μg/ml) in the presence of increasing doses of test products (10^-6l M to 5×10^-5 M). Platelets stimulated by arachidonic acid (AA) manufacture a large amount of thromboxane A2 (TXA2), which can be measured radioimmunologically in the form of a stable metabolite TXB2.
The assay of the amount of TXB2 in the medium is performed after a 1- to 15- minute incubation at 37° C., the measurements being made in comparison with a control suspension which has not been incubated with the test products.
Results: These are expressed as IC50, that is to say as the concentration of the test product which permits 50% inhibition of the production of TXB2.

[2] = system: biosynthesis of leukotrienes C4 (LTC4), human polymorphonuclear leukocytes; assay: LTC4 production in human polymorphonuclear leukocytes; assay type: cell-based; details: Leukocyte, 0.25 h, ionophore A 23187 5 μM, 15 min, 37° C., read-out: IC50, inhibition of the production of LTC4
Protocol: Human polymorphonuclear Leukocytes are stimulated by calcium ionophore A 23187 (Calbiochem, 5 μM), in the presence or absence of the test products.
After 15 minutes' incubation at 37° C., assay of the leukotrienes C4 (LTC4) is performed radioimmunologically.
The results are expressed as IC50, the concentration producing 50% inhibition of the production of LTC4, by comparison with a control suspension which has not been incubated in the presence of the test products.

thromboxane synthetase [3] = assay: TXB2 production in human glomeruli (renal preparation model); assay type: cell-based; details: arachidonic acid 5 ug/ml
Protocol: as §1, §2

5-lipoxygenase = assay: Production of LTB4 and 5-HETE by human leukocytes incubated with arachidonic acid; assay type: cell-based; details: ionophore A 23187 5 μM, arachidonic acid 10 μg/ml
Protocol: Human polymorphonuclear leukocytes suspended with arachidonic acid and stimulated by calcium ionophore produce leukotrienes B4 (LTB4).
The test consists in incubating fresh human leukocytes with arachidonic acid at a dose of 10 μg/ml to which a tracer dose of tritium-labelled arachidonic acid has been added. The leukocytes are stimulated with calcium ionophore A 23187 (Calbiochem, 5 μM) and the amount of 5-hydroxyeicosatetraenoic acid (5-HETE) and LTB4 produced is then assayed by HPLC.
5-HETE is the metabolite produced from arachidonic acid by 5-lipoxygenase, and from which LTB4 is produced by the action of an isomerase.
The results are expressed as an integration of the surface of the peak obtained in HPLC by comparison with that obtained with control leukocytes which have not been incubated with the test products.
The results in brackets are expressed as a percentage inhibition of the production of 5-HETE and LTB4.

[4] = system: pain threshold of brewer's yeast inflamed rat hind foot; assay: Randall and Sellitto's test (analgesic activity); assay type: in vivo; details: first experiment, Table XII, read-out: percentage increase in the mean pain threshold; for change in vivo at 25 mg/kg: 25 mg/kg oral; for change in vivo at 50 mg/kg: 50 mg/kg oral; for change in vivo at 100 mg/kg: 100 mg/kg oral
Procedure, shortened: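 Rats had 0.1 ml 20% brewer's yeast suspension injected under the hind-foot plantar aponeurosis; compounds dosed orally by stomach tube 1 h before yeast. Pain threshold was the pressure eliciting foot withdrawal, read at the 4–6 h plateau; result is % increase in mean threshold versus untreated controls, 10 rats per group.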

Oral LD50 in mice = details: mouse, in vivo, female Swiss CF mice, 20 g, 14 days observation, read-out: approximate oral LD50
Protocol: (§3) The compounds were suspended in a 3% strength solution of gum arabic so as to supply, in a volume of 2 ml for the rats, the equivalent of 50, 100, 200, 400 and 800 mg/kg, and, in a volume of 1 ml for the mice, 100, 200, 400, 800 and 1,600 mg/kg and, for 1573 and 1579, 3,200 mg/kg.
(§4) Gavage was performed by means of a metal tube, on batches of 5 animals for each series.
(§5) The animals were observed daily for 14 days.

Oral LD50 in rats = details: rat, in vivo, male Wistar rats, 200-400 g, 14 days observation, read-out: approximate oral LD50
Protocol: as §3, §4, §5

[5] = system: rat hind foot kaolin-induced oedema; assay: Kaolin-induced arthritis test, first experiment (decrease in inflammation, foot volume); assay type: in vivo; details: 1 h before kaolin, Table IX, read-out: percentage decrease in the inflammation; for change in vivo at 25 mg/kg: 25 mg/kg oral; for change in vivo at 50 mg/kg: 50 mg/kg oral; for change in vivo at 100 mg/kg: 100 mg/kg oral
Protocol: The […] of 0.05 ml of a sterile 10% strength suspension of kaolin into the metatarsal flexor sheath of the hind foot of a rat initially induces an oedematous reaction. An inflammatory arthritis then forms.
The early oedematous reaction appears from the first hour, and reaches its maximum between the fourth hour and the sixth hour. This is the manifestation of interest. The assessment of the volume of the foot enables the action of substances on the oedematous reaction to be studied. The measurements are carried out using a Giono and Chevilard plethysmometer.
The test products are administered orally (stomach tube) one hour before the injection of the kaolin.
The results are expressed as a percentage decrease in the inflammation in the treated animals compared with a control series of animals.
The batches are of 10 animals per dose and 10 control animals.
The figures shown represent the mean of 10 animals.

[6] = system: foreign-body (sponge) granuloma in rats; assay: Experimental granuloma induced by foreign body, histological study; assay type: in vivo, Wistar rats; details: both doses (50 and 100 mg/kg) oral, 8 days; Table XI
Protocol: This test consists in studying the subacute cellular phase which is developed in the 8 days which follow the implantation of a foreign body, a sponge of non-resorbable plastic, in the dorsal subcutaneous connective tissue in rats.
The granulomas formed are removed 8 days after the implantation; a histological study is carried out after fixing the tissue and staining sections with hematein/ eosin. The observation is more especially concerned with the cell population of the primary phase of the formation of the granulation tissue: the reticulohistocytic cells, lymphocytes and more especially the macrophages.
The animals used are Wistar rats weighing 120-140 g and of the same origin, maintained under the same conditions of housing throughout the treatment (8 days).
The compounds of the invention are administered orally, in a gum suspension, in the morning in a fasted state, using an oesophageal tube.
After 8 days of treatment, the rats are sacrificed by decapitation and the granulomas removed and prepared for the purpose of histological examination.
The experiment conditions are as follows:
The animals are distributed in batches of 10;
Each test product is administered at 2 doses, of 50 and 100 mg, respectively, to 2 batches of 10 animals;
Ketoprofen is used by way of reference product at the same 2 doses and under the same conditions; and
A batch of 10 control animals receives no treatment.
In this experiment, on the one hand a histological study of the granulomas is performed by sampling on day 8 (results recorded in Table XIa), and on the other hand a study of the weight of the granulomas was performed 10 days after the implantation (results recorded in Table XIb).

[7] = system: rat hind foot carragheenin-induced oedema; assay: Carragheenin-induced oedema test; assay type: in vivo; details: 3 h, first experiment, Table X, read-out: percentage inhibition of the inflammation; for change in vivo at 25 mg/kg: 25 mg/kg oral; for change in vivo at 50 mg/kg: 50 mg/kg oral; for change in vivo at 100 mg/kg: 100 mg/kg oral

Row | IC50 (prostacyclin synthetase) [µM] | IC50 (thromboxane synthetase [1]) [µM] | IC50 [2] [µM] | IC50 (thromboxane synthetase [3]) [µM] | Compound | 5-HETE, integration of the surface of the HPLC peak (5-lipoxygenase) | change in vivo at 25 mg/kg [4] [%] | change in vivo at 50 mg/kg [4] [%] | change in vivo at 100 mg/kg [4] [%] | LD50 at 336 h (Oral LD50 in mice) [mg/kg] | LD50 at 336 h (Oral LD50 in rats) [mg/kg] | change in vivo at 25 mg/kg [5] [%] | change in vivo at 50 mg/kg [5] [%] | change in vivo at 100 mg/kg [5] [%] | histological study of the granuloma [6] | change in vivo at 25 mg/kg [7] [%] | change in vivo at 50 mg/kg [7] [%] | change in vivo at 100 mg/kg [7] [%]
1 | > 50 | 11 | 1 | 2 | O=C(O)CCCCCCCCCCCNS(=O)(=O)c1ccc(Cl)c(C(=O)c2cccs2)c1 [Compound 1813] | 181 | – | – | – | – | – | – | – | – | – | – | – | –
2 | – | – | – | – | O=C(c1ccccc1)c1cc([N+](=O)[O-])ccc1S(=O)(=O)NCCCN1CCOCC1 [Compound 1361] | – | 20 | 25 | 45 | > 1600 | > 800 | -25 | -30 | -48 | anti-inflammatory activity is exhibited | -15 | -25 | -45
3 | – | – | – | – | O=C(c1ccccc1)c1ccccc1S(=O)(=O)NCCN1CCOCC1 [Compound 1341] | – | – | – | – | 250 | – | – | – | – | Inflammatory reaction distinctly attenuated | – | – | –
4 | – | – | – | – | O=C(O)CCCNS(=O)(=O)c1ccc(Cl)cc1C(=O)c1ccccc1Cl [Compound 1573] | – | 20 | 35 | 60 | > 3200 | – | -15 | -30 | -52 | the activity is very distinct | -17 | -28 | -50
